Assay [1] deals with T1, BKB1 receptors (Homo sapiens, UniProt P46663).
T1 construct: Human (IMR-90) lung fibroblast cells expressing native BKB1 receptors; endogenous in cells; host or cells: IMR-90 human lung fibroblasts, treated with human IL-1 to up-regulate BKB1
T1 sequence (P46663 1-353): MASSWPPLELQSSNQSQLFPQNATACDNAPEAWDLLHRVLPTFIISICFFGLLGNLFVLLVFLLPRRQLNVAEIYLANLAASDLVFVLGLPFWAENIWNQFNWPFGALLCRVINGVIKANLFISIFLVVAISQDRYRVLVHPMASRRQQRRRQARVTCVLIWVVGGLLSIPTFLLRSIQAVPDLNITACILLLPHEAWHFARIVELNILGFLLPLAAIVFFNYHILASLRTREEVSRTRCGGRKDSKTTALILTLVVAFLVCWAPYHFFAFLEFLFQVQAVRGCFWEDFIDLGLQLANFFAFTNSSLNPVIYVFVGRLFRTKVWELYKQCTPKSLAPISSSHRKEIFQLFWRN
In words: Calcium Mobilization Assay (FLIPR), IMR-90 cells, BKB1. The assay is classed as cell-based. Conditions: IL-1 induced IMR-90 cells, agonist desArg10-kallidin (DAKD).

The subject of assay [2] is CCI-induced mechanical allodynia. In words: Chronic constriction model of pain, mechanical allodynia. The assay is classed as in vivo, rat. Here is the method:
An evaluation of the in vivo activity of compound 8 (R,R) was performed by testing the inhibition potential in mechanical allodynia using the chronic constriction model of pain.
Male Sprague-Dawley (SD) derived rats weighing 180±20 g (at arrival) were provided by BioLasco Taiwan (under Charles River Laboratories Technology Licensee). Space allocation for 5 animals per cage was 45×23×21 cm and maintained in a controlled temperature (20-24° C.) and humidity (50%-80%) environment with 12 hours light/dark cycles for at least three days in Ricerca Biosciences, LLC (Taipei, Taiwan) Laboratory prior to use. Free access to standard lab chow for rats [MF-18 (Oriental Yeast Co., Ltd., Japan)] and tap water was granted. All aspects of this work including housing, experimentation and disposal of animals were performed in general accordance with the Guide for the Care and Use of Laboratory Animals (National Academy Press, Washington, D. C., 2010).
Neuropathic pain behavior was induced by ligation of the sciatic nerve according to the method described by Bennett and Xie [Bennett G. J. and Xie Y. K. A peripheral mononeuropathy in rat that produces disorders of pain sensation like those seen in man, Pain, (1988) 33:87-107]. Briefly, rats were anaesthetized under pentobarbital (50 mg/kg, 5 mL/kg, IP) anesthesia and the sciatic nerve was exposed at mid-thigh level. […]
The rats had access to food and water up to the time of the experiment, and then were placed under inverted Plexiglas cages on a wire mesh rack and allowed to acclimate for 20 to 30 minutes. Allodynia was evaluated using the Chaplin “up/down” method using von Frey hairs [Chaplan, S. R, Bach, F. W., Pogrel, J. W., Chung, J. M. and Yaksh, T. L. Quantitative assessment of tactile allodynia in the rat paw. […]
The threshold of response of the treated rats was compared to respective vehicle treated rats; two-way ANOVA followed by Bonferroni's test was used for comparison between vehicle and treated groups. […] The delta change value at each time point was also calculated. […]

Each structure is given as a SMILES string.

For `COc1ccccc1CN(C(=O)CC(C)C)[C@@H](C(=O)NC[C@H]1CCCO1)c1ccc(C)cc1` [Compound 8 (R,R), 3-methyl-N-(2-methoxybenzyl)-N-{[(1R)-1-(4-methylphenyl)]-2-oxo-2-[(2R)-(tetrahydrofuran-2-ylmethyl)amino]ethyl}butanamide], in assay [1], the IC50 stood at 0.134 µM. For the same compound, in assay [2] (30 mg/kg IV, 2 and 3 hours post-dose), the “significant reversal of CCI-induced mechanical allodynia” value was “not at 2 and 3 hours post-dose”. The “inhibition of CCI-induced mechanical allodynia” value in assay [2] (30 mg/kg IV, 1 hour post-dose) was 37%. Further, the “inhibitory activity on allodynia” value in assay [2] (chronic constriction model of pain) is reported as “strong inhibitory activity on allodynia”.

(Values after patent publication US9409876B2, “Bradykinin receptor antagonists and pharmaceutical compositions containing them” (DOMPE' FARMACEUTICI S.P.A., priority 2013, dated 2016).)
